Experimental data: the NIST ThermoML archive (doi:10.1021/je9009915)
Numbers after ± are expanded uncertainties.

Details: Liquid

FCC(F)(F)F [1,1,1,2-tetrafluoroethane]
vapor or sublimation pressure (303.45 K): 775.7 ± 1.1 kPa
vapor or sublimation pressure (308.44 K): 892.2 ± 1.2 kPa
vapor or sublimation pressure (313.3 K): 1018.8 ± 1.3 kPa
vapor or sublimation pressure (318.39 K): 1165.4 ± 1.4 kPa
vapor or sublimation pressure (323.3 K): 1319 ± 1.5 kPa
vapor or sublimation pressure (328.26 K): 1492.4 ± 1.7 kPa
vapor or sublimation pressure (333.3 K): 1683.7 ± 1.9 kPa
vapor or sublimation pressure (338.24 K): 1889.6 ± 2 kPa
vapor or sublimation pressure (343.23 K): 2115.3 ± 2.2 kPa
